# Key:
# eEF2K = target: T1, eEF2K (Mus musculus, UniProt O08796); test: IHC of phospho-eEF2 (T56) in Arid1a^fl/fl mice after eEF2K inhibitor treatment; assay type: in vivo; details: A-484954 10 mg/kg IP daily for 15 days
# T1 construct: from tissue; host or cells: bladder urothelium of Arid1a^fl/fl mice dosed in vivo
# T1 sequence (O08796 1-724): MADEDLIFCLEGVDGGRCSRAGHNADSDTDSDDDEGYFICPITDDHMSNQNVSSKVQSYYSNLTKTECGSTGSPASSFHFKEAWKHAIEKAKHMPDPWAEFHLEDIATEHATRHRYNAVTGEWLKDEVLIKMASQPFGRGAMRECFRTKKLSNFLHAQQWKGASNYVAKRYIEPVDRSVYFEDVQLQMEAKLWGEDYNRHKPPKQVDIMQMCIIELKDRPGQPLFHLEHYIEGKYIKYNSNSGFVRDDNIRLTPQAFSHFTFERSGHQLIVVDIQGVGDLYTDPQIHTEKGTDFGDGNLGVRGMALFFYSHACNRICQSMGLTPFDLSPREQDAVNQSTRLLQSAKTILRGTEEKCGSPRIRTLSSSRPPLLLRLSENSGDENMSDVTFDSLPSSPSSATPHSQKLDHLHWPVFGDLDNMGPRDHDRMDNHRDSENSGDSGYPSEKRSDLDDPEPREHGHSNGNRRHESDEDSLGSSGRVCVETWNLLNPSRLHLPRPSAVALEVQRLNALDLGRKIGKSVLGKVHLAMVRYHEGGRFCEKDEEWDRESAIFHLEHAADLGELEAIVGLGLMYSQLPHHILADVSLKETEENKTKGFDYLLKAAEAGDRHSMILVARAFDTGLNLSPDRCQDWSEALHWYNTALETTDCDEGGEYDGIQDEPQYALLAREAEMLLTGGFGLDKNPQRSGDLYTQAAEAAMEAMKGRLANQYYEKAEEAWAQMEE
# Procedure: (§1) Bladder samples were collected, fixed in 4% paraformaldehyde (PFA), dehydrated with ethanol, and embedded in paraffin wax. Paraffin blocks were sectioned (5 μm) using a rotary microtome and hematoxylin and eosin (H&E) stained. Immunohistochemistry (IHC) staining was performed after rehydrating the tissue. In brief, antigen retrieval was performed by preheating in sodium citrate buffer (pH 6.0 or pH 9) solution for 7-30 minutes at 95° C.-125° C. in a pressure cooker. Hydrogen peroxidase (Vector Laboratories) treatment was done for 5 minutes to quench endogenous peroxides. Tissue was blocked in 1% BSA for 1 hour. Primary antibodies were applied and incubated at room temperature for 1 hour in a humidified chamber followed by secondary antibody (EnVision™ system HRP-labeled polymer, Dako, K4003). Color development was achieved by applying 3,3′-diaminobenzidine (DAB) solution (Agilent Technology) for 2 to 5 minutes, depending on the primary antibody. The sections were counterstained with hematoxylin (Agilent Technology), washed, and cover-slipped using aqueous-based mounting medium (Agilent Technology). All IHC slides were scanned using Aperio ScanScope AT Turbo (Leica Biosystems). […]
# [1] = test system: protein synthesis in Arid1a^fl/fl bladders; test: In vivo puromycin incorporation assay in Arid1a^fl/fl mice after eEF2K inhibitor treatment; design: species or system mouse; details: A-484954 10 mg/kg IP daily for 15 days
# Procedure: Immunofluorescent (IF) staining was performed in the following manner. Antigen retrieval was conducted by preheating in sodium citrate buffer (pH 6.0) for 30 minutes at 95° C. in a pressure cooker. Tissue was blocked in 1% BSA solution for 2 hours or in M.O.M® blocking reagent (Vector Laboratories) for 1 hour at room temperature, followed by blocking in 1% BSA solution for 2 hours. Primary antibodies were applied overnight at 4° C. in a humidified chamber, and secondary antibodies (Alexa Fluor® 594; Alexa Fluor® 488; or Alexa Fluor® 647 (Invitrogen)) were applied for 1 hour at room temperature. All IF slides were mounted using ProLong™ gold mounting media with DAPI (Fisher Scientific, P36935). IF slides were scanned using an Aperio Scanscope FL (Leica Biosystems). The following primary antibodies were used for IF study: anti-Cytokeratin 5 (Biolegend Inc), anti-puromycin (EMD Millipore), anti-p-eEF2K (S366) (Cell Signaling Technology), anti-ARID1A (Sigma), or anti-Cytokeratin 5 (Abcam). Image analysis was done using semiautomated image analysis software (HALO, Indica Labs).
# For the in vivo puromycin incorporation assay, mice were injected i.p. with 200 μL of 2.5 mM puromycin (Fisher) and euthanized after 1 hour. For in vitro puromycin incorporation assay, cells were treated with 1 μM puromycin for 30 minutes at 37° C. […]
# [2] = test system: Arid1a^fl/fl mouse urothelium; test: γH2AX and CC3 staining of Arid1a^fl/fl urothelium, A-484954 pretreatment before 9-day BBN; assay type: in vivo; details: Arid1a^fl/fl mice pretreated with A-484954 before a 9-day course of BBN
# Procedure: as §1
# EZH2 = target: T2, EZH2 (Mus musculus, UniProt Q61188); test: H3K27me3 on the Rasgrp1 promoter in Arid1a^fl/fl organoids treated with EZH2 inhibitor; assay type: cell-based; details: Arid1a^fl/fl organoids treated with GSK126
# T2 construct: endogenous in cells; host or cells: Arid1a^fl/fl mouse urothelial organoids
# Procedure: CUT&Tag was performed following the published protocol, with some modifications. Briefly, cells were harvested and prepared into homogenous suspension in PBS, aliquoted with 10% DMSO and slow-frozen to −80° C. in isopropanol freezing chambers. CUT&Tag was performed with native nuclei. Cells were thawed at 37° C. for 1 minute, washed twice with PBS and centrifugation at 600×g for 3 minutes, and resuspended into ice-cold NE1 buffer (20 mM K-HEPES pH 7.9, 10 mM KCl, […], 20% Glycerol, 0.5 mM spermidine, and EDTA-free protease inhibitor). Cells were kept on ice for 10 minutes, centrifuged at 1400×g for 3 minutes using a swinging-bucket rotor, pellets were resuspended in Wash buffer (20 mM Na-HEPES pH 7.5, 150 mM NaCl, 0.5 mM spermidine, and EDTA-free protease inhibitor), nuclei were counted using Vi-CELL© Cell Viability Analyzer (Beckman Coulter) and aliquoted into 0.6 mL low-binding flip-cap tubes for CUT&Tag experiments.
# 500,000 nuclei were used for each CUT&Tag experiment targeting a histone posttranslational modification, while 200,000 nuclei were used for ARID1A. Bio-Mag®Plus Concanavalin A coated magnetic beads (Bangs Laboratories) were equilibrated with binding buffer (20 mM K-HEPES pH7.9, 10 mM KCl, and 1 mM each CaCl2 and MnCl2). To each sample, 10 μL of activated beads were added and held at room temperature for 5 minutes with occasional gentle mixing. […]
# Rasgrp1 mRNA = test: QPCR of Rasgrp1 in Arid1a^fl/fl organoids after GSK126; assay type: cell-based, mouse; details: Arid1a^fl/fl cells; GSK126 12.5 μM
# eEF2 phosphorylation = test: Immunoblot of phospho-eEF2 and total eEF2 in Arid1a^fl/fl organoids +/- GSK126; assay type: cell-based, mouse
# Procedure: Cell lysates were prepared using RIPA buffer (Fisher) containing phosphatase inhibitor (Sigma) and protease inhibitor cocktail (Sigma). The lysates were incubated on ice for 30 minutes with periodic mixing by vortex and centrifuged at 13,000×g at 4° C. for 10 minutes. The supernatants were subjected to SDS-PAGE and transferred to a PDVF membrane (Bio-Rad). Membranes were blocked with 5% milk for 1 hour at room temperature. Primary antibodies were diluted in 5% milk and incubated overnight at 4° C. Blots were incubated with horse radish peroxidase- (HRP-) conjugated secondary antibodies (goat anti-rabbit IgG (Fisher) or goat anti-mouse IgG (Fisher)) in 5% milk for 1 hour at room temperature. West Pico (Fisher) was used to detect immunoreactive bands on the blot using the ChemiDoc Touch Imaging System (Bio-Rad). […]
# RASGRP1 protein = test: RASGRP1 IF in Arid1a^fl/fl organoids after GSK126; assay type: cell-based, mouse; details: Arid1a^fl/fl cells treated with GSK126
# Procedure: Organoids were fixed using 4% PFA for 2 hours at room temperature on a shaker followed by a 30-minute incubation on ice to achieve complete removal of EHS. Intact organoids were collected as a pellet after centrifugation at 1400 rpm for 5 min and washed with ddH2O. The pellet was further washed with 0.2% BSA and organoids were mixed with HistoGel™ (Epredia). The organoid and HistoGel™ suspension was centrifuged at 1400 rpm for 5 minutes and kept on ice for 30 minutes. The solidified HistoGel™ structure was stored at 4° C. until ready for processing and paraffin embedding. Organoid sections ([…]) were deparaffinized in CitriSolv™ (Fisher, 4355121) for 10 minutes and rehydrated using 100% (2×), 90% (2×) and 70% (2×) ethanol for 5 minutes each. Antigen retrieval was performed by preheating in sodium citrate buffer (pH 6.0) solution for 10 minutes at 121° C. in a pressure cooker. Organoid sections were blocked in 1% BSA solution for 1 hour followed by overnight incubation in primary antibody (anti-RASGRP1: Fisher) at 4° C. in a humidified chamber. Secondary antibody (Alexa Fluor® 594: Invitrogen) incubation was performed for 1 hour at room temperature. All slides were mounted using ProLong™ gold mounting media with DAPI (Fisher Scientific, P36935). […]
# T2 sequence (Q61188 whole entry): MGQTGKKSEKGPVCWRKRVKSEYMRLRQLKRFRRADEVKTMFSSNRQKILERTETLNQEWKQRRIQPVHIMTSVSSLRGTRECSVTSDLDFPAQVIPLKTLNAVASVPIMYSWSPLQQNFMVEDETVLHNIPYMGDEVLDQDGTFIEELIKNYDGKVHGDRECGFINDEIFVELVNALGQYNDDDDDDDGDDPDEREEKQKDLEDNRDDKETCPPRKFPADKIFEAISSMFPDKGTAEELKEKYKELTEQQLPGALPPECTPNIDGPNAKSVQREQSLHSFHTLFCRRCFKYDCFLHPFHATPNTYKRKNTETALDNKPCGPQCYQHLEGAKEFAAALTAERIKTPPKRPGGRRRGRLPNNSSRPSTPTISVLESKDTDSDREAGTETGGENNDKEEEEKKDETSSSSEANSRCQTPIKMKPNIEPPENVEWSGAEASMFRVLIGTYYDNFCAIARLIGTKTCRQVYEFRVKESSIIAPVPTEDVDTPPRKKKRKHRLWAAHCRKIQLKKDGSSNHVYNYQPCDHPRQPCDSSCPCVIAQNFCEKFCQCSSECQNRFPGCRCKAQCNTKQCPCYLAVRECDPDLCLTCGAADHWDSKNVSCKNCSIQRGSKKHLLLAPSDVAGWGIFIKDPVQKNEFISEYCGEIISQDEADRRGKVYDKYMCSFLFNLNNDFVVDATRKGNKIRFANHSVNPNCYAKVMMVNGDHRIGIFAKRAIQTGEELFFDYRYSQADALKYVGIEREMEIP
# T2 sequence (Q921E6 whole entry partner): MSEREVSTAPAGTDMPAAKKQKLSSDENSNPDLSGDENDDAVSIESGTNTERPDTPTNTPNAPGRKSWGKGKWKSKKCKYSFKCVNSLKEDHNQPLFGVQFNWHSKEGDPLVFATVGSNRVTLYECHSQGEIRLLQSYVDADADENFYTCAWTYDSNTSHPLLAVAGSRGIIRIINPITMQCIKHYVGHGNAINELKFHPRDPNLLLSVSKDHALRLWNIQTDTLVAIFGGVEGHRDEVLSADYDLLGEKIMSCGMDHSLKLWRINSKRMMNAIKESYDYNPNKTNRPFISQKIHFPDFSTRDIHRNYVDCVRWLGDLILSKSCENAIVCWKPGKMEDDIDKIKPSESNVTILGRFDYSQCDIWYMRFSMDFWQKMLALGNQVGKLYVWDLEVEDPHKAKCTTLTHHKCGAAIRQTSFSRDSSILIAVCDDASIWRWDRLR
# T2 sequence (Q80U70 whole entry partner): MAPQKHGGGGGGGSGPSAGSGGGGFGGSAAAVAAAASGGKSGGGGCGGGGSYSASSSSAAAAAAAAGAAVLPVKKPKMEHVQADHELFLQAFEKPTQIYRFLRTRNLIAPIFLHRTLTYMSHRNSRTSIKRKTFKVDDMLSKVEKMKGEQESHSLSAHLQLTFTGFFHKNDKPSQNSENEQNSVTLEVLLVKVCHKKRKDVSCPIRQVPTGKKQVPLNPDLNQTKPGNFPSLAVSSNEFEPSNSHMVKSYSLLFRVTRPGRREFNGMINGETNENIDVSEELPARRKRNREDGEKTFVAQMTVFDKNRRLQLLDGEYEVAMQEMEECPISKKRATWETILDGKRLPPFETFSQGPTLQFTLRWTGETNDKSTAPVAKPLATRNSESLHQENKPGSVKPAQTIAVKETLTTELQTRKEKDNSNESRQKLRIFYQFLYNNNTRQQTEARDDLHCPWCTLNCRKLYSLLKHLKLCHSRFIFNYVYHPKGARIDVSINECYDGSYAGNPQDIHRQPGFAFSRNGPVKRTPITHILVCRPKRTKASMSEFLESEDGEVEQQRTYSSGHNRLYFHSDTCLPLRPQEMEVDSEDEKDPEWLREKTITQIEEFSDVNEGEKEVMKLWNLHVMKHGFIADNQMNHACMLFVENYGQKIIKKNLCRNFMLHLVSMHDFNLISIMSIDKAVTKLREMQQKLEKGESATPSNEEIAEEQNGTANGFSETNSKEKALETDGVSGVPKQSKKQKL
# T2 sequence (Q60972 whole entry partner): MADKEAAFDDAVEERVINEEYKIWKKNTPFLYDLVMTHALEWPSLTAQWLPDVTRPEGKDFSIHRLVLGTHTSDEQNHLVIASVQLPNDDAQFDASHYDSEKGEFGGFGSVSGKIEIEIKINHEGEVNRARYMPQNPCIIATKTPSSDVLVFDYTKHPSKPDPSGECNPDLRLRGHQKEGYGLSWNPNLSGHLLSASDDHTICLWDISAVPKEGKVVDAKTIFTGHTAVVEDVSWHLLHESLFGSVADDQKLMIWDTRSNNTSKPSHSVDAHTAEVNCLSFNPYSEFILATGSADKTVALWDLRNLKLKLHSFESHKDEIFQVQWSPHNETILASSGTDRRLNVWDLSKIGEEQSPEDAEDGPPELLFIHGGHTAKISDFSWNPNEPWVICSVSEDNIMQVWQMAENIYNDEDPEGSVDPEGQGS
eEF2 phosphorylation (T56) (eEF2K),H3K27me3 on the Rasgrp1 promoter (EZH2),Compound,protein synthesis (puromycin incorporation) [1],DNA damage (γH2AX) [2],apoptosis (CC3) [2],Rasgrp1 mRNA levels (Rasgrp1 mRNA),eEF2 phosphorylation (eEF2 phosphorylation),RASGRP1 protein levels (RASGRP1 protein)
attenuation of eEF2 phosphorylation,–,CCn1c(=O)c2cc(C(N)=O)c(N)nc2n(C2CC2)c1=O [A-484954],restoration of protein synthesis,markedly decreased,markedly decreased,–,–,–
–,decreased H3K27me3,CC[C@H](C)n1cc(C)c2c(C(=O)NCc3c(C)cc(C)[nH]c3=O)cc(-c3ccc(N4CCNCC4)nc3)cc21 [GSK126],–,–,–,restored,decrease in eEF2 phosphorylation,restored
